# Experiments:
# Format in all cases: functional
# [1] = tested on: COLO 205; experiment: Cytotoxicity against human COLO205 cells assessed as cell growth level at 100 nM after 48 hrs by sulforhodamine B assay
# [2] = tested on: A549; experiment: Cytotoxicity against human A549/ATCC cells assessed as cell growth level at 100 uM after 48 hrs by sulforhodamine B assay
# [3] = tested on: HOP-62; experiment: Cytotoxicity against human HOP62 cells assessed as cell growth level at 1 uM after 48 hrs by sulforhodamine B assay
# [4] = tested on: OVCAR-4; experiment: Cytotoxicity against human OVCAR4 cells assessed as cell growth level at 10 nM after 48 hrs by sulforhodamine B assay
# [5] = tested on: HOP-62; experiment: Cytotoxicity against human HOP62 cells after 48 hrs by sulforhodamine B assay; settings: HOP-62, 48 h
# [6] = tested on: SK-OV-3; experiment: Cytotoxicity against human SKOV3 cells assessed as cell growth level at 1 uM after 48 hrs by sulforhodamine B assay
# [7] = tested on: LOX IMVI; experiment: Cytotoxicity against human LOXIMVI cells assessed as cell growth level at 10 uM after 48 hrs by sulforhodamine B assay
# [8] = tested on: HOP-62; experiment: Cytotoxicity against human HOP62 cells assessed as cell growth level at 10 nM after 48 hrs by sulforhodamine B assay
# [9] = tested on: NCI-H226; experiment: Cytotoxicity against human NCI-H226 cells after 48 hrs by sulforhodamine B assay; settings: NCI-H226, 48 h
# [10] = tested on: DU-145; experiment: Cytotoxicity against human DU145 cells after 48 hrs by sulforhodamine B assay; settings: DU-145, 48 h
# [11] = tested on: MCF7; experiment: Cytotoxicity against human MCF7 cells assessed as cell growth level at 1 uM after 48 hrs by sulforhodamine B assay
# [12] = tested on: SW-620; experiment: Cytotoxicity against human SW620 cells assessed as cell growth level at 10 uM after 48 hrs by sulforhodamine B assay
# [13] = tested on: BT-549; experiment: Cytotoxicity against human BT549 cells assessed as cell growth level at 10 uM after 48 hrs by sulforhodamine B assay
# [14] = Cytotoxicity against human NCI-ADR-RES cells after 48 hrs by sulforhodamine B assay
# [15] = tested on: NCI-H460; experiment: Cytotoxicity against human NCI-H460 cells assessed as cell growth level at 1 uM after 48 hrs by sulforhodamine B assay
# [16] = tested on: SK-MEL-5; experiment: Cytotoxicity against human SK-MEL-5 cells assessed as cell growth level at 1 uM after 48 hrs by sulforhodamine B assay
# [17] = tested on: MCF7; experiment: Cytotoxicity against human MCF7 cells after 48 hrs by sulforhodamine B assay; settings: MCF7, 48 h
# [18] = tested on: A498; experiment: Cytotoxicity against human A498 cells assessed as cell growth level at 10 uM after 48 hrs by sulforhodamine B assay
# [19] = tested on: CCRF-CEM; experiment: Cytotoxicity against human CCRF-CEM cells assessed as cell growth level at 10 uM after 48 hrs by sulforhodamine B assay
# [20] = tested on: SF-295; experiment: Cytotoxicity against human SF295 cells assessed as cell growth level at 10 uM after 48 hrs by sulforhodamine B assay
# [21] = tested on: T47D; experiment: Cytotoxicity against human T47D cells assessed as cell growth level at 1 uM after 48 hrs by sulforhodamine B assay
# [22] = tested on: SNB-19; experiment: Cytotoxicity against human SNB19 cells assessed as cell growth level at 100 uM after 48 hrs by sulforhodamine B assay
# [23] = tested on: HCT-116; experiment: Cytotoxicity against human HCT116 cells assessed as cell growth level at 1 uM after 48 hrs by sulforhodamine B assay
# [24] = tested on: K562; experiment: Cytotoxicity against human K562 cells assessed as cell growth level at 10 nM after 48 hrs by sulforhodamine B assay
# [25] = tested on: T47D; experiment: Cytotoxicity against human T47D cells after 48 hrs by sulforhodamine B assay
# [26] = tested on: MDA-MB-468; experiment: Cytotoxicity against human MDA-MB-468 cells assessed as cell growth level at 1 uM after 48 hrs by sulforhodamine B assay
# [27] = tested on: DU-145; experiment: Cytotoxicity against human DU145 cells assessed as cell growth level at 10 nM after 48 hrs by sulforhodamine B assay
# [28] = tested on: LOX IMVI; experiment: Cytotoxicity against human LOXIMVI cells assessed as cell growth level at 100 uM after 48 hrs by sulforhodamine B assay
# [29] = tested on: HCT-15; experiment: Cytotoxicity against human HCT15 cells after 48 hrs by sulforhodamine B assay; settings: HCT-15, 48 h
# [30] = tested on: COLO 205; experiment: Cytotoxicity against human COLO205 cells assessed as cell growth level at 10 nM after 48 hrs by sulforhodamine B assay
# [31] = tested on: MDA-MB-435; experiment: Cytotoxicity against human MDA-MB-435 cells assessed as cell growth level at 10 nM after 48 hrs by sulforhodamine B assay
# [32] = tested on: MDA-MB-231; experiment: Cytotoxicity against human MDA-MB-231/ATCC cells assessed as cell growth level at 100 uM after 48 hrs by sulforhodamine B assay
# [33] = tested on: K562; experiment: Cytotoxicity against human K562 cells assessed as cell growth level at 10 uM after 48 hrs by sulforhodamine B assay
# [34] = tested on: SW-620; experiment: Cytotoxicity against human SW620 cells after 48 hrs by sulforhodamine B assay; settings: SW-620, 48 h
# [35] = tested on: RPMI-8226; experiment: Cytotoxicity against human RPMI8226 cells assessed as cell growth level at 100 uM after 48 hrs by sulforhodamine B assay
# [36] = tested on: UACC-62; experiment: Cytotoxicity against human UACC62 cells assessed as cell growth level at 100 nM after 48 hrs by sulforhodamine B assay
# [37] = tested on: MCF7; experiment: Cytotoxicity against human MCF7 cells assessed as cell growth level at 10 uM after 48 hrs by sulforhodamine B assay
# [38] = read-out: LC50 (the source's name)
# [39] = read-out: pLC50 (the source's name) (converted)
smiles,measurement,setting,value
O=c1oc2ccccc2cc1-c1csc(N/N=C/c2c[nH]c3ccccc23)n1,Activity,[1],115%
same,Activity,[2],-29%
same,Activity,[3],103%
same,Activity,[4],90%
same,GI50,[5]; read-out: GI50,3.73 µM
same,LC50,[5]; read-out: LC50,> 100 µM
same,TGI,[5]; read-out: TGI,20 µM
same,GI50,[5]; read-out: pGI50 (converted),3.72 µM
same,LC50,[5]; read-out: pLC50 (converted),> 100 µM
same,TGI,[5]; read-out: pTGI (converted),20 µM
same,Activity,[6],64%
same,Activity,[7],-52.19%
same,Activity,[8],105%
same,GI50,[9]; read-out: GI50,2.38 µM
same,CC50,[9]; [38],> 100 µM
same,TGI,[9]; read-out: TGI,7.7 µM
same,GI50,[9]; read-out: pGI50 (converted),2.4 µM
same,CC50,[9]; [39],> 100 µM
same,TGI,[9]; read-out: pTGI (converted),7.76 µM
same,GI50,[10]; read-out: GI50,1.8 µM
same,CC50,[10]; [38],> 100 µM
same,TGI,[10]; read-out: TGI,4.27 µM
same,GI50,[10]; read-out: pGI50 (converted),1.82 µM
same,CC50,[10]; [39],> 100 µM
same,TGI,[10]; read-out: pTGI (converted),4.27 µM
same,Activity,[11],69%
same,Activity,[12],17.5%
same,Activity,[13],-12.14%
same,GI50,[14]; read-out: GI50,2.82 µM
same,CC50,[14]; [38],> 100 µM
same,TGI,[14]; read-out: TGI,9.23 µM
same,GI50,[14]; read-out: pGI50 (converted),2.82 µM
same,CC50,[14]; [39],> 100 µM
same,TGI,[14]; read-out: pTGI,< 9.33 µM
same,Activity,[15],52%
same,Activity,[16],90%
same,GI50,[17]; read-out: GI50,2.4 µM
same,CC50,[17]; [38],> 100 µM
same,TGI,[17]; read-out: TGI,15.5 µM
same,GI50,[17]; read-out: pGI50 (converted),2.4 µM
same,CC50,[17]; [39],> 100 µM
same,TGI,[17]; read-out: pTGI (converted),15.5 µM
same,Activity,[18],6.72%
same,Activity,[19],-26.91%
same,Activity,[20],-25.04%
same,Activity,[21],81%
same,Activity,[22],-44%
same,Activity,[23],81%
same,Activity,[24],95%
same,GI50,[25]; read-out: GI50,1.98 µM
same,CC50,[25]; [38],> 100 µM
same,TGI,[25]; read-out: TGI,5.9 µM
same,GI50,[25]; read-out: pGI50 (converted),2 µM
same,CC50,[25]; [39],> 100 µM
same,TGI,[25]; read-out: pTGI (converted),5.89 µM
same,Activity,[26],72%
same,Activity,[27],95%
same,Activity,[28],-45%
same,GI50,[29]; read-out: GI50,1.61 µM
same,CC50,[29]; [38],7.46 µM
same,TGI,[29]; read-out: TGI,3.47 µM
same,GI50,[29]; read-out: pGI50 (converted),1.62 µM
same,CC50,[29]; [39],7.41 µM
same,TGI,[29]; read-out: pTGI (converted),3.47 µM
same,Activity,[30],110%
same,Activity,[31],92%
same,Activity,[32],-3%
same,Activity,[33],0.99%
same,GI50,[34]; read-out: GI50,2.19 µM
same,CC50,[34]; [38],70.9 µM
same,TGI,[34]; read-out: TGI,5.24 µM
same,GI50,[34]; read-out: pGI50 (converted),2.19 µM
same,CC50,[34]; [39],70.8 µM
same,TGI,[34]; read-out: pTGI,5.25 µM
same,Activity,[35],-41%
same,Activity,[36],96%
same,Activity,[37],8.91%

# From ChEMBL document CHEMBL3580659, “One-pot multicomponent synthesis of indole incorporated thiazolylcoumarins and their antibacterial, anticancer and DNA cleavage studies” (2015)
